Test results from patent US10759796B2, “CXCR4 inhibitors and uses thereof” (X4 Pharmaceuticals, Inc., priority 2016, dated 2020).

Key:
[1] = Mouse brain uptake assay (pharmacokinetics and brain penetration after IV administration), 0-1 h, 3 time points; assay type: in vivo, Male CD1 Mice; details: male; for Kp uu: CD1, brain and plasma, read-out: Kp, uu (unbound brain/unbound plasma drug concentration ratio); for Kp uu / clearance / half-life: Mouse, 0-1 h; for Kp uu / clearance / half-life / AUC(0-t): 3 mg/kg IV; for Kp: CD1, mouse, brain and plasma, iv, 3 mg/kg, read-out: Kp (brain/plasma drug concentration ratio); for clearance / half-life: CD1, plasma, 3 time points; for half-life: read-out: t½ (converted); for AUC(0-t): CD1, time zero to 1 hr
Protocol: (§1) Example 29: Pharmacokinetics and Brain Penetration Experiment to Determine Brain and Plasma Concentrations of Compounds After IV Administration to Male CD1 Mice or Male SD Rat
(§2) The study design (9 animals) consisted of administrating the drug (IV: 3 mg/kg (5 mL/kg) via tail vein injection) and collecting samples at terminal bleeding for plasma and brain at 0.083, 0.5 and 1 h. The blood collection was performed as follows: the animal was restrained manually and approximately 150 μL blood/time point was collected into a dipotassium EDTA tube via retro orbital puncture under anesthesia with isoflurane. The blood sample was put on ice and centrifuged to obtain a plasma sample (2000 g, 5 min under 4° C.) within 15 minutes. The brain collection was performed as follows: a mid-line incision was made in the animal's scalp and the skin was retracted. Using small bone cutters and rongeurs, the skull overlying the brain was removed. The brain was removed using a spatula and the brain rinsed with cold saline. The brain was placed in screw-top tubes, and the tubes were stored at −70° C. until analysis. The IV dosing solution was prepared in 50 mM citrate buffer (pH 4.0) at 0.6 mg/mL.
Plasma Sample Preparation:
(§3) An aliquot of 30 μL sample was added to 150 μL MeCN containing 50 ng/mL IS (Dexamethasone). The mixture was vortexed for 5 min and centrifuged at 14,000 rpm for 5 min. An aliquot of 5 μL supernatant was injected for LC-MS/MS analysis.
Brain Sample Preparation:
(§4) An aliquot of 30 μL brain homogenate (brain:PBS=1:3, w/v) sample was added to 150 μL IS in ACN (Dexamethasone, 50 ng/mL). The mixture was vortexed for 5 min and centrifuged at 14,000 rpm for 5 min. An aliquot of 5 μL supernatant was injected for LC-MS/MS analysis.
(§5) The sample analysis was performed on LCMS/MS-003 (API4000, triple quadruple) under the following conditions: positive ion, ESI, MRM detection using dexamethasone as internal standard. HPLC conditions: mobile phase A: H2O (0.025% formic acid (FA) with 1 mM NH4OAc); mobile phase B: MeOH (0.025% FA with 1 mM NH4OAc) on Waters X-Bridge C18 (2.1×50 mm, 2.5 μm) column at 60° C.

[2] = Fraction of drug unbound to brain proteins, rat; assay type: in vitro ADME; details: read-out: Fu (b)
plasma proteins = assay: Fraction of drug unbound to plasma proteins, mouse; assay type: in vitro ADME; details: Mouse plasma proteins (Table 10)
[3] = Rat pharmacokinetics and brain penetration (IV and PO); assay type: in vivo; details: male, SD, 3 mg/kg IV, 10 mg/kg PO; for Kp / Kp uu: brain and plasma; for Kp / Kp uu / clearance / bioavailability / half-life: Rat; for Kp: read-out: Kp (brain/plasma drug concentration ratio); for Kp uu: read-out: Kp, uu (unbound brain/unbound plasma drug concentration ratio); for clearance / bioavailability / half-life: plasma; for bioavailability: read-out: F % (oral bioavailability); for half-life: read-out: t½ (converted)
Protocol: as §1
The study design consisted of 2 groups (24 animals and 18 animals) and administrating the drug [IV: 3 mg/kg (1.5 mL/kg) via foot dorsal vein], [PO: 10 mg/kg (5 mL/kg) via oral gavage] and collecting samples at terminal bleeding for plasma, brain and CSF at 0.25, 0.5, 1, 4, 8 and 24 hr. The IV and PO dosing solutions were prepared in 50 mM citrate buffer (pH 4.0) at 2 mg/mL. The blood collection was performed as follows: the animal was restrained manually at the designated time points, approximately 150 μL of blood sample was collected via cardiac puncture vein into EDTA-2K tubes. The blood samples were maintained in wet ice first and centrifuged to obtain plasma (2000 g, 4° C., 5 min) within 15 minutes post sampling. The brain collection was performed as follows: a mid-line incision was made in the animal's scalp and the skin was retracted. Using small bone cutters and rongeurs, the skull overlying the brain was removed. The brain was removed using a spatula and rinsed with cold saline. The brain was placed in screw-top tubes and then stored under −70° C. until analysis. The CSF collection was performed as follows: the animal was euthanized under deep anesthesia with air bubble tail vein injection. The CSF was collected by direct puncture of butterfly needle into the cisterna magna, using the occipital bone and the wings of the atlas as landmarks. A piece of white paper was used as a background to monitor color change in the sample just above the needle during collection. Upon observation of color change, the PE tubing was quickly clamped off above the color change and cut just above the clamped site. The clear sample was drawn into the syringe.
Plasma Samples Preparation:
An aliquot of 30 μL sample was added with 100 MeCN containing 100 ng/mL IS (Dexamethasone). The mixture was vortexed for 10 min and centrifuged at 5800 rpm for 10 min. An aliquot of 40 μL supernatant was added with 40 μl H2O and the mixture was vortexed for 5 min. An aliquot of 2 μL supernatant was injected for LC-MS/MS analysis.
Brain Samples Preparation:
The sample was homogenized with 3 volumes (v/w) of PBS. An aliquot of 30 μL sample was added with 100 μL ACN containing 100 ng/mL IS (Dexamethasone). The mixture was vortexed for 10 min and centrifuged at 5800 rpm for 10 min. An aliquot of 40 μL supernatant was added with 40 μl H2O and the mixture was vortexed for 5 min. An aliquot of 2 μL supernatant was injected for LC-MS/MS analysis.
An aliquot of 10 μL sample was added with 10 μLMeOH/H2O (1/1) and […], ACN containing 200 ng/mL IS (Dexamethasone) 120 μL H2O. The mixture was vortexed for 5 min. An aliquot of 2 μL supernatant was injected for LC-MS/MS analysis.
The sample analysis was performed on UPLC-MS/MS-02 (Triple Quad 4000) under the following conditions: positive ion, ESI, MRM detection using dexamethasone as internal standard. HPLC conditions: mobile phase A: H2O-0.1% FA, mobile phase B: MeCN-0.1% FA on ACQUITY UPLC HSS T3 (2.1×50 mm, 1.8 μm) column at 60° C.

[4] = Mouse brain uptake assay, 0-24 h, 4 time points; assay type: in vivo; details: male, 3 mg/kg IV, 4 time points; for Kp / Kp uu: CD1, brain and plasma; for Kp / Kp uu / clearance / half-life: Mouse; for clearance / half-life: CD1, plasma; for half-life: read-out: t½ (converted)
Protocol: as §2, §3, §4, §5
A similar experiment was performed with 4 time points taken from 0-24 h.

[5] = Fraction of drug unbound to plasma proteins, rat; assay type: in vitro ADME; details: read-out: Fu (p)
brain proteins = assay: Fraction of drug unbound to brain proteins, mouse; assay type: in vitro ADME
[6] = Mouse brain, read-out: AUClast (b)
[7] = Mouse plasma, read-out: AUClast (p)
[8] = Rat brain, read-out: AUClast (b)
[9] = Rat plasma, read-out: AUClast (p)
[10] = CD1, Mouse brain, read-out: AUClast (b)
[11] = CD1, Mouse plasma, read-out: AUClast (p)

| Compound | Kp uu [1] | Kp [1] | clearance [1] [mL/min/kg] | half-life [1] [h] | AUC(0-t) [1, 6] [ng·h/mL] | AUC(0-t) [1, 7] [ng·h/mL] | AUC(0-t) [4, 10] [ng·h/mL] | AUC(0-t) [4, 11] [ng·h/mL] | Kp [4] | clearance [4] [mL/min/kg] | half-life [4] [h] | fraction unbound [2] | Kp [3] | Kp uu [3] | clearance [3] [mL/min/kg] | bioavailability [3] [%] | half-life [3] [h] | AUC(0-t) [3, 8] [ng·h/mL] | AUC(0-t) [3, 9] [ng·h/mL] | fraction unbound [5] | also measured |
| --- | --- | --- | --- | --- | --- | --- | --- | --- | --- | --- | --- | --- | --- | --- | --- | --- | --- | --- | --- | --- | --- |
| Cc1cccnc1[C@@H]1CCC[C@H](c2nc3cccc(N4CCN(C(C)C)CC4)n3c2Br)N1C [Compound I-20] | 0.3 | 6.29 | 173 | 0.374 | 1520 | 241 | – | – | – | – | – | – | – | – | – | – | – | – | – | – | – |
| CN1CCN(c2cccc3nc([C@H]4CCC[C@@H](c5ncccc5Cl)N4)cn23)CC1 (racemic) [Compound I-149] | 0.38 | 1.45 | 207 | 0.367 | 295 | 203 | – | – | – | – | – | 0.038 | 8.4 | 1.6 | 127 | 37.9 | 6.7 | 3820 | 457 | 0.2 | – |
| Cc1cccnc1[C@@H]1CCC[C@H](c2cn3c(-c4cccnc4)cccc3n2)N1C [Compound I-6] | – | 0.61 | 48.3 | 3.6 | 326 | 531 | 3170 | 1040 | 3.05 | 48.3 | 3.6 | – | – | – | – | – | – | – | – | – | – |
| Cc1cccnc1[C@@H]1CCC[C@H](c2nc3cccc(N4CCC(N(C)C)CC4)n3c2Cl)N1C [Compound I-114] | 0.08 | 0.76 | 117 | 0.72 | 205 | 267 | – | – | – | – | – | – | – | – | – | – | – | – | – | – | – |
| CN1CCN(c2cccc3nc([C@@H]4CCC[C@H](c5ncccc5Cl)N4)cn23)CC1 (single isomer, unassigned) [Compound I-189] | – | – | – | – | – | – | – | – | – | – | – | 0.061 | 4.03 | 0.99 | 68.8 | 25.4 | 8.14 | 2300 | 570 | 0.248 | – |
| CN1CCN(c2cccc3nc([C@H]4CCC[C@@H](c5ncccc5Cl)N4)cn23)CC1 (single isomer, unassigned) [Compound I-188] | – | – | – | – | – | – | – | – | – | – | – | 0.057 | 5.65 | 1.04 | 74.3 | 36.9 | 6.87 | 4470 | 791 | 0.308 | Fu (b) (brain proteins; Mouse brain proteins (Table 13)): 5.4% |
| CCN1CCN(c2cccc3nc([C@H]4CCC[C@@H](c5ncccc5C)N4C)c(Br)n23)CC1 [Compound I-19] | 0.32 | 8.84 | 223 | 0.363 | 1690 | 191 | – | – | – | – | – | – | – | – | – | – | – | – | – | – | – |
| Cc1cccnc1[C@@H]1CCC[C@H](c2nc3cccc(N4CCN(C)CC4)n3c2Cl)N1C [Compound I-18] | 0.43 | 11.8 | 245 | 0.344 | 2060 | 175 | – | – | – | – | – | – | – | – | – | – | – | – | – | – | – |

More lines, main results first:

| Kp uu [1] | Kp [1] | clearance [1] [mL/min/kg] | half-life [1] [h] | AUC(0-t) [1, 6] [ng·h/mL] | AUC(0-t) [1, 7] [ng·h/mL] | AUC(0-t) [4, 10] [ng·h/mL] | AUC(0-t) [4, 11] [ng·h/mL] | Kp [4] | clearance [4] [mL/min/kg] | half-life [4] [h] | Compound | fraction unbound [2] | Kp [3] | Kp uu [3] | clearance [3] [mL/min/kg] | bioavailability [3] [%] | half-life [3] [h] | AUC(0-t) [3, 8] [ng·h/mL] | AUC(0-t) [3, 9] [ng·h/mL] | fraction unbound [5] | also measured |
| --- | --- | --- | --- | --- | --- | --- | --- | --- | --- | --- | --- | --- | --- | --- | --- | --- | --- | --- | --- | --- | --- |
| 0.21 | 1.86 | 7.22 | 6.02 | 1640 | 884 | 34800 | 6590 | 5.29 | 7.22 | 6.02 | Cc1cccnc1[C@@H]1CCC[C@H](c2nc3cccc(N4CCN(C)CC4)n3c2Cl)N1 [Compound I-146] | 0.007 | 1.82 | 0.18 | 24.3 | 70.1 | 7.89 | 7800 | 4280 | 0.07 | Fu (p) % (plasma proteins): 5.3%; Kp uu [4]: 0.6 |
| 0.05 | 0.22 | 127 | 0.354 | 76.5 | 335 | 1360 | 1720 | 0.79 | 28.7 | 4.72 | Cc1cccnc1[C@@H]1CCC[C@H](c2cn3c(N4CCN(C)CC4)cccc3n2)N1 [Compound I-187] | – | – | – | – | – | – | – | – | – | Fu (p) % (plasma proteins): 24.9%; Kp uu [4]: 0.22; Fu (b) % (brain proteins; Mouse brain proteins (Table 10)): 7.1% |
